Target: T1, human apelin receptor (Homo sapiens, UniProt P35414)
T1 construct: expressed in transfected cells
T1 sequence (P35414 1-380): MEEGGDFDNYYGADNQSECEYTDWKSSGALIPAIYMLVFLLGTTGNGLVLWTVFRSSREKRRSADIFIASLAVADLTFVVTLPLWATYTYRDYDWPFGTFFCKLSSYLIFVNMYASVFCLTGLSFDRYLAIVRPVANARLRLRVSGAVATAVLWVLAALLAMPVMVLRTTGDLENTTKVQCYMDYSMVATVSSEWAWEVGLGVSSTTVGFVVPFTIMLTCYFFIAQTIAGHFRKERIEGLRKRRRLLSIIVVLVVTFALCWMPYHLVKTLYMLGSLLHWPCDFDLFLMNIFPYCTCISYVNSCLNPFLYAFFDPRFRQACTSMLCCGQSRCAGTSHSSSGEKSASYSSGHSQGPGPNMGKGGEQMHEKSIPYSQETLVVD
Assay: Determination of agonism on the human apelin receptor by a calcium fluorescence assay (FLIPR)
Assay type: cell-based
Settings: HEK293 cells stably transfected with human apelin receptor and Giaq protein, Fluo-4 calcium fluorescence, read-out: EC50 (APJ agonism)
Summary of the method: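 HEK293 cells stably co-expressing human apelin receptor and promiscuous Giaq, loaded 1 h at 37 °C with Fluo-4 (4 μM) in probenecid-containing Hepes buffer, pH 7.4. Compounds, at least 7 concentrations in triplicate, added in FLIPR Tetra; peak calcium fluorescence normalized to 1 μM apelin-13 as 100% to derive EC50.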

Row | EC50 [µM] | Compound
1 | 0.842 | CCC(CC)n1c(Cc2cccs2)nc2cc(C(=O)N[C@@H](CC(C)C)C(=O)N(C)Cc3n[nH]c(=O)[nH]3)ccc21 [Example 405, 1-(1-Ethyl-propyl)-2-thiophen-2-ylmethyl-1H-benzoimidazole-5-carboxylic acid {(S)-3-methyl-1-[methyl-(5-oxo-4,5-dihydro-1H-[1,2,4]triazol-3-ylmethyl)-carbamoyl]-butyl}-amide]
2 | 1.11 | CCC(CC)n1c(Cc2cccs2)nc2cc(C(=O)N[C@@H](CC(C)C)C(=O)NCCc3n[nH]c(=O)[nH]3)ccc21 [Example 406, 1-(1-Ethyl-propyl)-2-thiophen-2-ylmethyl-1H-benzoimidazole-5-carboxylic acid {(S)-3-methyl-1-[2-(5-oxo-4,5-dihydro-1H-[1,2,4]triazol-3-yl)-ethylcarbamoyl]-butyl}-amide]
3 | 0.708 | CCC(CC)n1c(Cc2cccs2)nc2cc(C(=O)N[C@@H](CC(C)C)C(=O)N3CCC(O)C3)ccc21 (stereo partly drawn) [Example 407, 1-(1-Ethyl-propyl)-2-thiophen-2-ylmethyl-1H-benzoimidazole-5-carboxylic acid [(S)-1-(3-hydroxy-pyrrolidine-1-carbonyl)-3-methyl-butyl]-amide]
4 | 0.447 | CCC(CC)n1c(Cc2cccs2)nc2cc(C(=O)N[C@@H](CC(C)C)C(=O)NCC(=O)O)ccc21 [Example 408, ((S)-2-{[1-(1-Ethyl-propyl)-2-thiophen-2-ylmethyl-1H-benzoimidazole-5-carbonyl]-amino}-4-methyl-pentanoylamino)-acetic acid]
5 | 0.491 | CCC(CC)n1c(Cc2cccs2)nc2cc(C(=O)N[C@@H](CC(C)C)C(=O)N3CCC[C@H]3C(=O)O)ccc21 [Example 409, (S)-1-((S)-2-{[1-(1-Ethyl-propyl)-2-thiophen-2-ylmethyl-1H-benzoimidazole-5-carbonyl]-amino}-4-methyl-pentanoyl)-pyrrolidine-2-carboxylic acid]
6 | 0.578 | CCC(CC)n1c(Cc2cccs2)nc2cc(C(=O)N[C@@H](CC(C)C)C(=O)N3CCC[C@@H]3C(=O)O)ccc21 [Example 410, (R)-1-((S)-2-{[1-(1-Ethyl-propyl)-2-thiophen-2-ylmethyl-1H-benzoimidazole-5-carbonyl]-amino}-4-methyl-pentanoyl)-pyrrolidine-2-carboxylic acid]
7 | 0.822 | CCC(CC)n1c(Cc2cccs2)nc2cc(C(=O)N[C@@H](CC(C)C)C(=O)N3CC(C(=O)O)C3)ccc21 [Example 411, 1-((S)-2-{[1-(1-Ethyl-propyl)-2-thiophen-2-ylmethyl-1H-benzoimidazole-5-carbonyl]-amino}-4-methyl-pentanoyl)-azetidine-3-carboxylic acid]
8 | 0.038 | CCC(CC)n1c(Cc2cccs2)nc2cc(C(=O)N[C@H](Cc3nnn[nH]3)CC(C)C)ccc21 [Example 472, 1-(1-Ethyl-propyl)-2-thiophen-2-ylmethyl-1H-benzoimidazole-5-carboxylic acid [(S)-3-methyl-1-(1H-tetrazol-5-ylmethyl)-butyl]-amide]
9 | 0.173 | CCC(CC)n1c(Cc2cccs2)nc2cc(C(=O)N[C@H](CC(=N)NO)CC(C)C)ccc21 [Example 473, 1-(1-Ethyl-propyl)-2-thiophen-2-ylmethyl-1H-benzoimidazole-5-carboxylic acid [(S)-1-(N-hydroxycarbamimidoylmethyl)-3-methyl-butyl]-amide]
10 | 34.5 | CCC(CC)n1c(Cc2cccs2)nc2cc(C(=O)N[C@H](Cc3noc(-c4ccccc4)n3)CC(C)C)ccc21 [Example 474, 1-(1-Ethyl-propyl)-2-thiophen-2-ylmethyl-1H-benzoimidazole-5-carboxylic acid [(S)-3-methyl-1-(5-phenyl-[1,2,4]oxadiazol-3-ylmethyl)-butyl]-amide]
11 | 2.82 | CCC(CC)n1c(Cc2cccs2)nc2cc(C(=O)N[C@H](Cc3noc(C4CC4)n3)CC(C)C)ccc21 [Example 475, 1-(1-Ethyl-propyl)-2-thiophen-2-ylmethyl-1H-benzoimidazole-5-carboxylic acid [(S)-1-(5-cyclopropyl-[1,2,4]oxadiazol-3-ylmethyl)-3-methyl-butyl]-amide]
12 | 3.95 | CCC(CC)n1c(Cc2cccs2)nc2cc(C(=O)N[C@H](Cc3n[nH]c(C(F)(F)F)n3)CC(C)C)ccc21 [Example 476, 1-(1-Ethyl-propyl)-2-thiophen-2-ylmethyl-1H-benzoimidazole-5-carboxylic acid [(S)-3-methyl-1-(5-trifluoromethyl-1H-[1,2,4]triazol-3-ylmethyl)-butyl]-amide]
13 | 2.72 | CCCC(NC(=O)c1ccc2c(c1)nc(Cc1cccs1)n2C(CC)CC)c1ccccn1 (stereo not drawn) [Example 477, 1-(1-Ethyl-propyl)-2-thiophen-2-ylmethyl-1H-benzoimidazole-5-carboxylic acid (1-pyridin-2-yl-butyl)-amide]
14 | 3.15 | CCC(CC)n1c(Cc2cccs2)nc2cc(C(=O)NC(CC(C)C)c3cccnc3)ccc21 (stereo not drawn) [Example 478, 1-(1-Ethyl-propyl)-2-thiophen-2-ylmethyl-1H-benzoimidazole-5-carboxylic acid (3-methyl-1-pyridin-3-yl-butyl)-amide]
15 | 16.9 | CCC(CC)n1c(Cc2cccs2)nc2cc(C(=O)NC(CC(C)C)c3nccs3)ccc21 (stereo not drawn) [Example 479, 1-(1-Ethyl-propyl)-2-thiophen-2-ylmethyl-1H-benzoimidazole-5-carboxylic acid (3-methyl-1-thiazol-2-yl-butyl)-amide]
16 | 20 | CCC(CC)n1c(Cc2cccs2)nc2cc(C(=O)NC(CC(C)C)c3nc(C)c(C)s3)ccc21 (stereo not drawn) [Example 480, 1-(1-Ethyl-propyl)-2-thiophen-2-ylmethyl-1H-benzoimidazole-5-carboxylic acid [1-(4,5-dimethyl-thiazol-2-yl)-3-methyl-butyl]-amide]
17 | 3.48 | CCC(CC)n1c(Cc2cccs2)nc2cc(C(=O)NC(CC(C)C)c3nnc(C)o3)ccc21 (stereo not drawn) [Example 481, 1-(1-Ethyl-propyl)-2-thiophen-2-ylmethyl-1H-benzoimidazole-5-carboxylic acid [3-methyl-1-(5-methyl-[1,3,4]oxadiazol-2-yl)-butyl]-amide]
18 | 15.7 | CCC(CC)n1c(Cc2cccs2)nc2cc(C(=O)N[C@H](c3nnc(COC)[nH]3)C(C)C)ccc21 [Example 482, 1-(1-Ethyl-propyl)-2-thiophen-2-ylmethyl-1H-benzoimidazole-5-carboxylic acid [(S)-1-(5-methoxymethyl-2H-[1,2,4]triazol-3-yl)-2-methyl-propyl]-amide]
19 | 2.08 | CCC(CC)n1c(Cc2cccs2)nc2cc(C(=O)N[C@H](CSc3nnc[nH]3)CC(C)C)ccc21 [Example 483, 1-(1-Ethyl-propyl)-2-thiophen-2-ylmethyl-1H-benzoimidazole-5-carboxylic acid [(S)-3-methyl-1-(4H-[1,2,4]triazol-3-ylsulfanylmethyl)-butyl]-amide]
20 | 0.014 | CCC(CC)n1c(Cc2cccs2)nc2cc(C(=O)N[C@@H](CC(C)C)CS(=O)(=O)c3nnc[nH]3)ccc21 [Example 484, 1-(1-Ethyl-propyl)-2-thiophen-2-ylmethyl-1H-benzoimidazole-5-carboxylic acid [(S)-3-methyl-1-(4H-[1,2,4]triazole-3-sulfonylmethyl)-butyl]-amide]
21 | 0.813 | CCC(CC)n1c(Cc2cccs2)nc2cc(C(=O)N[C@@H](CC(C)C)CS(=O)(=O)NC)ccc21 [Example 485, 1-(1-Ethyl-propyl)-2-thiophen-2-ylmethyl-1H-benzoimidazole-5-carboxylic acid ((S)-3-methyl-1-methylsulfamoylmethyl-butyl)-amide]
